24 molecules from patent US8431597B2, “Benzimidazole derivatives” (Pfizer Inc., priority 2007, dated 2013) can be followed below.

Counter-ions that a name gives are not always drawn.

T1 sequence (P56726 33-793): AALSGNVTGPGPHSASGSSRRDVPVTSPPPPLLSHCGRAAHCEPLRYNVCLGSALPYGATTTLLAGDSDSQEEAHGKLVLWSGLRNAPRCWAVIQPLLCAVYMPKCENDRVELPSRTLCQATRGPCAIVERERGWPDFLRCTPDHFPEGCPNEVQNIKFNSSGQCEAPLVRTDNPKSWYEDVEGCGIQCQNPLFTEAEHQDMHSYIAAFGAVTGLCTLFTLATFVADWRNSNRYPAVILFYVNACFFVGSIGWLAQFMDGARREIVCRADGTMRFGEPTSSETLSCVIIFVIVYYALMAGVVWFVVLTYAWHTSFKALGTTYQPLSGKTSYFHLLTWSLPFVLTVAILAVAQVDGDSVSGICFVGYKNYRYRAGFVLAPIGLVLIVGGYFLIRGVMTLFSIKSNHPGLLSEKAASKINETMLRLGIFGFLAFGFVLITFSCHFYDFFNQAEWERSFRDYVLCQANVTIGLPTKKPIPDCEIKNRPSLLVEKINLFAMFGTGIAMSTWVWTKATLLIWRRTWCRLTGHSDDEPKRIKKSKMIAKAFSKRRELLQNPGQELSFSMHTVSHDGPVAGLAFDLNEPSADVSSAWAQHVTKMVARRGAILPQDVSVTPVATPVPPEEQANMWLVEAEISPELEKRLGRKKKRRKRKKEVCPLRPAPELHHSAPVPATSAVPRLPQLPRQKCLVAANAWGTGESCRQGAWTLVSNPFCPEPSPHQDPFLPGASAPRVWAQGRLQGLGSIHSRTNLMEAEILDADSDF

The assay has as its target T1, Smoothened (SMO) (Mus musculus, UniProt P56726).
T1 construct: C3H10T1/2 cells (ATCC #CCL-226) were split and seeded; endogenous in cells; host or cells: C3H10T1/2 (ATCC #CCL-226)
Kind of assay: Smoothened (SMO)/Sonic Hedgehog (SHh) Transient Transcriptional Activation Assay (Gli-luciferase reporter in C3H10T1/2 cells). Type of assay: cell-based, murine. The note with it: C3H 10T1/2, 2 μM compound; transfected C3H10T1/2 cells, recombinant human SHh 250 ng/mL, 20 hours, luciferase readout; read-out: SMO CELL % INHIBITION @ 2 μM. The procedure:
As noted above, the compounds of the invention are useful as inhibitors of SMO. • Methods for determining the in vitro activity of these compounds are described below: Smoothened (SMO)/Sonic Hedgehog (SHh) Transient Transcriptional Activation Assay
On Day 1, 2×10^6 C3H10T1/2 cells (ATCC #CCL-226) were split and seeded in 12 mL of growth medium Basal Medium Eagle (BME, Invitrogen #21010-046) supplemented with 2 mM L-glutamine (Invitrogen #25030-081), 0.1 units/mL penicillin and 0.1 μg/mL streptomycin (Invitrogen #15140-122), and 10% Fetal Bovine Serum (FBS, Invitrogen #16140-071) in a T-75 flask (Costar #3376). They were allowed to attach for 4 hours at 37° C., 5% CO2. The cells were then transfected using Fugene 6 (Roch #11 814 443 001) in the following reaction: 48 μL Fugene 6 and 745 μL Opti-MEM (Invitrogen #31985-070) were mixed and allowed to sit at room temperature for 5 minutes. 8 μg of pGL4.14/mGli(CS) DNA (10× murine Gli response elements and minimal CS promoter) and 0.5 μg of pEGFP DNA (Clontech) were added, gently mixed and incubated at room temperature for 20 minutes. This entire transfection mix was then added to the T-75 flask containing the cells. The cells were incubated at 37° C., 5% CO2 for 18-24 hours.
On Day 2, the transfected cells were trypsinized and seeded into white 96 well plates (Costar #3917) in 100 μL/well of growth medium at a concentration of 20,000 cells/well. The cells were allowed to recover for 4 hours before adding serum starvation medium Dulbecco's Modified Eagle Medium (DMEM, Invitrogen #21063-029) supplemented with 2 mM L-glutamine, 0.1 units/mL penicillin and 0.1 μg/mL streptomycin, and 0.5% Calf Serum (CS, Invitrogen #26170-043). The growth media was aspirated off, and the cells were rinsed with 100 μL of starvation media. 95 μL of starvation media was then added to each well. The cells were incubated for 20 hours at 37° C., 5% CO2.
On Day 3, cells were dosed with test compounds at a final concentration ranging from 2 μM to 2 nM. Immediately after dosing cells with compounds, recombinant human sonic hedgehog (SHh, R&D Systems #1845-SH) was add to a final concentration of 250 ng/mL. A 25 μg vial of SHh was reconstituted with 250 μL PBS/0.1% BSA to give a 100 ng/μL working stock. This working stock was then diluted 1:20 in starvation media. The transfected cells were incubated with compounds and SHh for 20 hours at 37° C., 5% CO2.
Luciferase assays were conducted on Day 4 using Dual-Glo Luciferase assay system (Promega #E2940) according to Promega's protocol. Briefly, Dual-Glo luciferase reagent was made up and 100 μL were added to each well of the 96 well plate containing media. Plates were shaken at room temperature for 10 minutes, and then read on TopCount (Perkin-Elmer). The luminescence was recorded.
As to `Cc1ccc(NC(=O)N[C@@H]2CCN(C)[C@@H](c3nc4cc(C)c(C)cc4[nH]3)C2)cn1` [Example 131, 1-[(2R(4R)-2-(5,6-dimethyl-1H-benzimidazol-2-yl)-1-methylpiperidin-4-yl]-3-(6-methylpyridin-3-yl)urea hydrochloride], the inhibition – broadly, the change of the read-out against control, counted positive when it falls – at 2 µM turned out to be 105%.
To `CN1CC[C@@H](NC(=O)c2ccc3nonc3c2)C[C@@H]1c1nc2ccccc2[nH]1` [Example 119, N-[(2R,4R)-2-(1H-benzimidazol-2-yl)-1-methylpiperidin-4-yl]-2,1,3-benzoxadiazole-5-carboxamide trifluoroacetate] belongs 64.5%; to `O=C(N[C@@H]1CCN2CCn3c(nc4ccccc43)[C@H]2C1)c1ccc2c(c1)OCCO2` [Example 12, N-[(2R,13bR)-1,3,4,6,7,13b-hexahydro-2H-pyrido[2′,1′:3,4]pyrazino[1,2-a]benzimidazol-2-yl]-2,3-dihydro-1,4-benzodioxine-6-carboxamide hydrochloride], 64.1%.
Consider `CN1CC[C@@H](NC(=O)NCc2ccccc2)C[C@@H]1c1nc2ccccc2[nH]1` [Example 76, 1-[(2R,4R)-2-(1H-benzimidazol-2-yl)-1-methylpiperidin-4-yl]-3-benzylurea hydrochloride], for which the inhibition at 2 µM was found to be 100%.
For the molecule `CN1CC[C@@H](NC(=O)c2ccc3c(c2)OCCO3)C[C@@H]1c1nc2ccccc2[nH]1` [Example 86, N-[(2R,4R)-2-(1H-benzimidazol-2-yl)-1-methylpiperidin-4-yl]-2,3-dihydro-1,4-benzodioxine-6-carboxamide hydrochloride], the inhibition at 2 µM was 93.1%.
Regarding `CN1CC[C@@H](NC(=O)[C@@H]2COc3ccccc3O2)C[C@@H]1c1nc2ccccc2[nH]1` [Example 105, (2S)-N-[(2R,4R)-2-(1H-benzimidazol-2-yl)-1-methylpiperidin-4-yl]-2,3-dihydro-1,4-benzodioxine-2-carboxamide trifluoroacetate], the inhibition at 2 µM worked out at 97.8%.
For `CN1CC[C@@H](NC(=O)c2ccc(-c3cnco3)cc2)C[C@@H]1c1nc2ccccc2[nH]1` [Example 92, N-[(2R,4R)-2-(1H-benzimidazol-2-yl)-1-methylpiperidin-4-yl]-4-(1,3-oxazol-5-yl)benzamide hydrochloride], the inhibition at 2 µM was 86.4%.
Then `COc1cc(C(=O)N[C@@H]2CCN(C)[C@@H](c3nc4ccccc4[nH]3)C2)ccc1F` [Example 102, N-[(2R,4R)-2-(1H-benzimidazol-2-yl)-1-methylpiperidin-4-yl]-4-fluoro-3-methoxybenzamide trifluoroacetate], with 102%; and `Cc1cc(NC(=O)N[C@@H]2CCN(C)[C@@H](c3nc4ccccc4[nH]3)C2)cnc1C` [Example 71, 1-[(2R,4R)-2-(1H-benzimidazol-2-yl)-1-methylpiperidin-4-yl]-3-(5,6-dimethylpyridin-3-yl)urea hydrochloride], with 101%; and `CN1CC[C@@H](NC(=O)Nc2ccc(C(F)(F)F)nc2)C[C@@H]1c1nc2ccccc2[nH]1` [Example 66, 1-[(2R,4R)-2-(1H-benzimidazol-2-yl)-1-methylpiperidin-4-y1]-3-[6-(trifluoromethyl)pyridin-3-yl]urea hydrochloride], with 103%.
To `O=C(N[C@@H]1CCN(C2CC2)[C@@H](c2nc3ccccc3[nH]2)C1)c1ccc2c(c1)OCCO2` [Example 125, N-[(2R,4R)-2-(1H-benzimidazol-2-yl)-1-cyclopropylpiperidin-4-yl]-2,3-dihydro-1,4-benzodioxine-6-carboxamide hydrochloride] belongs 102%.
Consider `CN(C)c1ccc(NC(=O)N[C@@H]2CCN(C)[C@@H](c3nc4ccccc4[nH]3)C2)cc1` [Example 56, 1-[(2R,4R)-2-(1H-benzimidazol-2-yl)-1-methylpiperidin-4-yl]-3-[4-(dimethylamino)phenyl]urea hydrochloride], for which the inhibition at 2 µM worked out at 104%.
Consider `O=C(N[C@H]1C[C@@H](c2nc3ccccc3[nH]2)N(C(=O)OCc2ccccc2)C1)c1ccc2c(c1)OCCO2` [Example 10, benzyl (2S,4S)-2-(1H-benzimidazol-2-yl)-4-[(2,3-dihydro-1,4-benzodioxin-6-ylcarbonyl)amino]pyrrolidine-1-carboxylate], for which the inhibition at 2 µM is 106%.
To `COc1ccc2nc([C@H]3C[C@H](NC(=O)c4ccc5c(c4)OCCO5)CCN3C)[nH]c2c1` [Example 38, N-[(2R,4R)-2-(6-methoxy-1H-benzimidazol-2-yl)-1-methylpiperidin-4-yl]-2,3-dihydro-1,4-benzodioxine-6-carboxamide hydrochloride] belongs 106%.
Turning to `CN1CC[C@@H](NC(=O)Nc2ccc(C#N)cc2)C[C@@H]1c1nc2cc(C(F)(F)F)ccc2[nH]1` [Example 7, 1-(4-cyanophenyl)-3-{(2R,4R)-1-methyl-2-[5-(trifluoromethyl)-1H-benzimidazol-2-yl]piperidin-4-yl}urea hydrochloride], the inhibition at 2 µM was found to be 109%.
`CN1CC[C@@H](NC(=O)Cn2ncc3ccccc32)C[C@@H]1c1nc2ccccc2[nH]1` [Example 109, N-[(2R,4R)-2-(1H-benzimidazol-2-yl)-1-methylpiperidin-4-yl]-2-(1H-indazol-1-yl)acetamide trifluoroacetate]: the inhibition at 2 µM stood at 85.2%.
Then `CN1CC[C@@H](NC(=O)c2ccc3c(c2Cl)OCCO3)C[C@@H]1c1nc2ccccc2[nH]1` [Example 144, N-[(2R,4R)-2-(1H-benzimidazol-2-yl)-1-methylpiperidin-4-yl]-5-chloro-2,3-dihydro-1,4-benzodioxine-6-carboxamide triflouroacetate], with 108%; and `O=C(N[C@@H]1CCN[C@@H](c2nc3ccccc3[nH]2)C1)c1ccc2c(c1)OCCO2` [Example 99, N-[(2R,4R)-2-(1H-benzimidazol-2-yl)piperidin-4-yl]-2,3-dihydro-1,4-benzodioxine-6-carboxamide trifluoroacetate], with 72%; and `CN1CC[C@@H](NC(=O)c2ccc3c(c2)CCC(=O)N3)C[C@@H]1c1nc2ccccc2[nH]1` [Example 87, N-[(2R,4R)-2-(1H-benzimidazol-2-yl)-1-methylpiperidin-4-yl]-2-oxo-1,2,3,4-tetrahydroquinoline-6-carboxamide hydrochloride], with 92.3%.
Turning to `CN1CC[C@@H](NC(=O)Nc2ccc(C#N)cc2)C[C@@H]1c1nc2cc(F)ccc2[nH]1` [Example 51, 1-(4-cyanophenyl)-3-[(2R,4R)-2-(5-fluoro-1H-benzimidazol-2-yl)-1-methylpiperidin-4-yl]urea hydrochloride], the inhibition at 2 µM came to 105%.
To `CN1CC[C@@H](NC(=O)Nc2ccc(C(F)(F)F)nc2)C[C@@H]1c1nc2cc(C(F)(F)F)ccc2[nH]1` [Example 35, 1-{(2R,4R)-1-methyl-2-[5-(trifluoromethyl)-1H-benzimidazol-2-yl]piperidin-4-yl}-3-[6-(trifluoromethyl)pyridin-3-yl]urea hydrochloride] belongs 107%.
Then `CN1CC[C@@H](NC(=O)Nc2ccc(C(F)(F)F)nc2)C[C@@H]1c1nc2cc(C#N)ccc2[nH]1` [Example 55, 1-[(2R,4R)-2-(5-cyano-1H-benzimidazol-2-yl)-1-methylpiperidin-4-yl]-3-[6-(trifluoromethyl)pyridin-3-yl]urea hydrochloride], with 105%.
Take `Cc1cc2nc([C@H]3C[C@H](NC(=O)Nc4ccc(C(F)(F)F)nc4)CCN3C)[nH]c2cc1C` [Example 77, 1-[(2R,4R)-2-(5,6-dimethyl-1H-benzimidazol-2-yl)-1-methylpiperidin-4-yl]-3-[6-(trifluoromethyl)pyridin-3-yl]urea hydrochloride]: the inhibition at 2 µM worked out at 100%.
Then `CN1CC[C@@H](NC(=O)c2ccc3c(c2)OCCO3)C[C@@H]1c1nc2ccc(Cl)cc2[nH]1` [Example 34, N-[(2R,4R)-2-(6-chloro-1H-benzimidazol-2-yl)-1-methylpiperidin-4-yl]-2,3-dihydro-1,4-benzodioxine-6-carboxamide hydrochloride], with 107%.
